Laboratory results reported in patent US10335372B2, “Compositions with modified nucleases targeted to viral nucleic acids and methods of use for prevention and treatment of viral diseases” (priority 2004, dated 2019).

System: FMDV of O-type
Settings: guinea pig, in vivo

**Q.** For “RNase: recombinant / wild-type human RNase I (Examples 22, 30, 31)”, which “resistance to FMD on repeated infection” value is on record?
**A.** resistant to FMD following subsequent repeated infection
